Values of other authors in patent US20240153607A1, “System for Determining Treatment Timing and Methods of Treatment Timed Based on Biological Process Indicators” (Arcascope Inc., priority 2022, published 2024).

Settings: cancer treatments in humans; [Hrushesky], [Lévi1990]

Structure (SMILES)	time of day at which the drug is most tolerable (toxicity by time of day)
COc1cccc2c1C(=O)c1c(O)c3c(c(O)c1C2=O)C[C@@](O)(C(=O)CO)C[C@@H]3O[C@H]1C[C@H](N)[C@H](O)[C@H](C)O1 [doxorubicin]	most tolerable in the morning
COc1cccc2c1C(=O)c1c(O)c3c(c(O)c1C2=O)C[C@@](O)(C(=O)CO)C[C@@H]3O[C@H]1C[C@H](N)[C@H](O[C@@H]2CCCCO2)[C@H](C)O1 [theprubicin]	most tolerable in the morning
